Reference: patent US12281079B2, “Quinoline derivatives, processes for their preparation and uses thereof for the treatment of cancer” (Lead Discovery Center GmbH, priority 2019, dated 2025)

Key:
[1] = test system: mitochondrial transcription (7S RNA) in HeLa cells; experiment: Quantitative real time-PCR assay of inhibition of mitochondrial transcription (7S RNA) in HeLa cells; type: cell-based; conditions: Homo sapiens, 4 h compound incubation, according to Example 5, read-out: cellular qPCR assay
Procedure, shortened: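 HeLa cells were exposed to compound dilution series or DMSO for 4 h, then RNA was extracted, normalized and reverse-transcribed. TaqMan qRT-PCR measured short-lived 7S RNA, with POLRMT as nuclear-transcription readout and TBP as housekeeping gene. Biological triplicates were analyzed by ΔΔCt and reported as Rq % (2−ΔΔCt).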

[2] = target: mitochondrial RNA polymerase (POLRMT) (Mus musculus, UniProt Q8BKF1); experiment: Homogeneous TR-FRET assay for mitochondrial transcription activity; type: biochemical; conditions: homogeneous TR-FRET assay according to Example 4
Procedure, shortened: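 Read-out is TR-FRET (ex 340, em 665 nm) from two adjacent labelled DNA probes annealing to the 407 bp transcript after EDTA/700 mM NaCl stop. Reaction: murine POLRMT, TFAM, TFB2M and LSP plasmid template, compound 10 μM or serial dilution, 10 min rt preincubation, 500 μM each nucleotide, 2 h rt.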

Chain of mitochondrial RNA polymerase (POLRMT) (Q8BKF1 42-1207): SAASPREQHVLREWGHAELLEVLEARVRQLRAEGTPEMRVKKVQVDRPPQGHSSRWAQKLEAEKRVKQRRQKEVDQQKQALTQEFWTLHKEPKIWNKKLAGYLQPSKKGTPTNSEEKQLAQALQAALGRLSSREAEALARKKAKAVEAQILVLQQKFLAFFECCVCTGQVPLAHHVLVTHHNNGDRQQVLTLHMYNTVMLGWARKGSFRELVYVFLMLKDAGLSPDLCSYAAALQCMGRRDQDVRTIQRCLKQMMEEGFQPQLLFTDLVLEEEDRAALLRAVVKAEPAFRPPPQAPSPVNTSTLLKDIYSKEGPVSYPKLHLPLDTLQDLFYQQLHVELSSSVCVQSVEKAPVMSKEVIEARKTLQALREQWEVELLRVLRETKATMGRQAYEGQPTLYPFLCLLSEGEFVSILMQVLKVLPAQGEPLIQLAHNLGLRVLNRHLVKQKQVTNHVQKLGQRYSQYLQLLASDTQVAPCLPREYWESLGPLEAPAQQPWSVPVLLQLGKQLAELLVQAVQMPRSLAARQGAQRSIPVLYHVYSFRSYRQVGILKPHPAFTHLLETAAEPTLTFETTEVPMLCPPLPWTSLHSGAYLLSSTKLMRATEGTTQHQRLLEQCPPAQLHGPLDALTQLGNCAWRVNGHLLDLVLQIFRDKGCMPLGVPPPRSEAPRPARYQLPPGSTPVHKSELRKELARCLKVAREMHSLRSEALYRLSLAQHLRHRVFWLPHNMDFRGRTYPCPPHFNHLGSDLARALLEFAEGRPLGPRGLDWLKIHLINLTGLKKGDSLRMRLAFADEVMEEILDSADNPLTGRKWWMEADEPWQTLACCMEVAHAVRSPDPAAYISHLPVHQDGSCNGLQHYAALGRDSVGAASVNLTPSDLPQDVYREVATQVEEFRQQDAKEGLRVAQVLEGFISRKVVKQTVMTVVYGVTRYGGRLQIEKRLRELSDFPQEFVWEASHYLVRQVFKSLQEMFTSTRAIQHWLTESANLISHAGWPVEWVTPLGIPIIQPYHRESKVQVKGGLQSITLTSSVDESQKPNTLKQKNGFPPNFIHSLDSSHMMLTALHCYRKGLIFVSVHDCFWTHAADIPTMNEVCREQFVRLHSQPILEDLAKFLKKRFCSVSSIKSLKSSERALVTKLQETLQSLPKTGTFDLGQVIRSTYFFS

IC50 [1] [nM]	IC50 [2] [nM]	Structure (SMILES)
10 to 50	< 20	C[C@@H](Oc1ccc2c(-c3c(Cl)cc(F)cc3Cl)ccnc2c1)C(=O)N1CCC[C@@](C)(C(=O)O)C1 [Compound 188, (3R)-1-[(2R)-2-[[4-(2,6-dichloro-4-fluoro-phenyl)-7-quinolyl]oxy]propanoyl]-3-methyl-piperidine-3-carboxylic acid]
50 to 500	20 to 100	C[C@@H](Oc1ccc2c(-c3ccc(F)cc3Cl)ccnc2c1)C(=O)Nc1cccc(C(=O)O)c1 [Compound 26, 3-[[(2R)-2-[[4-(2-chloro-4-fluoro-phenyl)-7-quinolyl]oxy]propanoyl]amino]benzoic acid]
50 to 500	< 20	C[C@@H](Oc1ccc2c(-c3ccc(F)cc3Cl)ccnc2c1)C(=O)N1CCC[C@H](c2nn[nH]n2)C1 [Compound 11, (2R)-2-[[4-(2-chloro-4-fluoro-phenyl)-7-quinolyl]oxy]-1-[(3S)-3-(2H-tetrazol-5-yl)-1-piperidyl]propan-1-one]
< 10	< 20	Cc1cc(F)cc(C)c1-c1ccnc2cc(O[C@H](C)C(=O)N3CCC4(CCNC4=O)CC3)ccc12 [Compound 181, 8-[(2R)-2-[[4-(4-fluoro-2,6-dimethyl-phenyl)-7-quinolyl]oxy]propanoyl]-2,8-diazaspiro[4.5]decan-1-one]
50 to 500	20 to 100	C[C@@H](Oc1ccc2c(-c3ccc(F)cc3Cl)ccnc2c1)C(=O)N1CC[C@H](C(=O)O)C1 [Compound 19, (3S)-1-[(2R)-2[[4-(2-chloro-4-fluoro-phenyl)-7-quinolyl]oxy]propanoyl]pyrrolidine-3-carboxylic acid]
50 to 500	20 to 100	C[C@@H](Oc1ccc2c(-c3ccc(F)cc3Cl)ccnc2c1)C(=O)N1CCC=C(C(=O)O)C1 [Compound 219, 1-[(2R)-2-[[4-(2-chloro-4-fluoro-phenyl)-7-quinolyl]oxy]propanoyl]-3,6-dihydro-2H-pyridine-5-carboxylic acid]
50 to 500	100 to 1000	C[C@@H](Oc1ccc2c(-c3ccc(F)cc3Cl)ccnc2c1)C(=O)N1CC(C)(C)NC(C)(C)C1 [Compound 215, (2R)-2-[[4-(2-chloro-4-fluoro-phenyl)-7-quinolyl]oxy]-1-(3,3,5,5-tetramethylpiperazin-1-yl)propan-1-one]
10 to 50	100 to 1000	Cc1cc(-c2ccc(F)cc2Cl)c2ccc(O[C@H](C)C(=O)N3CCC[C@H](C(=O)O)C3)cc2n1 [Compound 59, (3S)-1-[(2R)-2-[[4-(2-chloro-4-fluoro-phenyl)-2-methyl-7-quinolyl]oxy]propanoyl]piperidine-3-carboxylic acid]
50 to 500	100 to 1000	C[C@@H](Oc1ccc2c(-c3ccc(F)cc3Cl)cc(Cl)nc2c1)C(=O)N1CCC[C@H](C(=O)O)C1 [Compound 64, (3S)-1-[(2R)-2-[[2-chloro-4-(2-chloro-4-fluoro-phenyl)-7-quinolyl]oxy]propanoyl]piperidine-3-carboxylic acid]
50 to 500	100 to 1000	C[C@@H](Oc1ccc2c(-c3ccc(F)cc3Cl)cc(Cl)nc2c1)C(=O)N1CCC[C@H](CC(=O)O)C1 [Compound 56, 2-[(3R)-1-[(2R)-2-[[2-chloro-4-(2-chloro-4-fluoro-phenyl)-7-quinolyl]oxy]propanoyl]-3-piperidyl]acetic acid]
10 to 50	20 to 100	CCc1ccccc1-c1ccnc2cc(O[C@H](C)C(=O)N3CCC[C@H](CC(=O)O)C3)ccc12 [Compound 121, 2-((R)-1-((R)-2-((4-(2-ethylphenyl)quinolin-7-yl)oxy)propanoyl)piperidin-3-yl)acetic acid]
10 to 50	100 to 1000	CCOC(=O)C[C@H]1CCCN(C(=O)[C@@H](C)Oc2ccc3c(-c4ccccc4C)cc(C)nc3c2)C1 [Compound 49, ethyl 2-[(3R)-1-[(2R)-2-[[2-methyl-4-(o-tolyl)-7-quinolyl]oxy]propanoyl]-3-piperidyl]acetate]
10 to 50	< 20	C[C@@H](Oc1ccc2c(-c3ccccc3Cl)ccnc2c1)C(=O)N1CCC(CCC(=O)O)CC1 [Compound 118, 3-[1-[(2R)-2-[[4-(2-chlorophenyl)-7-quinolyl]oxy]propanoyl]-4-piperidyl]propanoic acid]
10 to 50	100 to 1000	C[C@@H](Oc1ccc2c(-c3c(Cl)cc(F)cc3Cl)ccnc2c1)C(=O)N1CCCC(C2(O)CC2)C1 (mixture of isomers) [Compound 203, rac-(2R)-2-[[4-(2,6-dichloro-4-fluoro-phenyl)-7-quinolyl]oxy]-143-(1-hydroxycyclopropyl)-1-piperidyl]propan-1-one]
50 to 500	1000 to 10000	CCNC(=O)[C@@H](C)Oc1ccc2c(-c3ccc(F)cc3Cl)ccnc2c1 [Compound 131]
10 to 50	100 to 1000	C[C@@H](Oc1ccc2c(-c3ccccc3Cl)ccnc2c1)C(=O)N1CCCCC1 [Compound 53, (2R)-2-[[4-(2-chlorophenyl)-7-quinolyl]oxy]-1-(1-piperidyl)propan-1-one]
50 to 500	20 to 100	CCOC(=O)C[C@H]1CCCN(C(=O)[C@@H](C)Oc2ccc3c(-c4ccc(F)cc4Cl)ccnc3c2)C1 [Compound 15, ethyl 2-((R)-1-((R)-2-((4-(2-chloro-4-fluorophenyl)quinolin-7-yl)oxy)propanoyl)piperidin-3-yl)acetate]
10 to 50	100 to 1000	C[C@@H](Oc1ccc2c(-c3ccc(F)cc3Cl)ccnc2c1)C(=O)N1CCC2(CCNC2=O)CC1 [Compound 205, 8-[(2R)-2-[[4-(2-chloro-4-fluoro-phenyl)-7-quinolyl]oxy]propanoyl]-2,8-diazaspiro[4.5]decan-1-one]
< 10	100 to 1000	C[C@@H](Oc1ccc2c(-c3ccc(F)cc3Cl)ccnc2c1)C(=O)N1CCC[C@H](S(N)(=O)=O)C1 [Compound 116, (3S)-1-[(2R)-2-[[4-(2-chloro-4-fluoro-phenyl)-7-quinolyl]oxy]propanoyl]piperidine-3-sulfonamide]
10 to 50	100 to 1000	C[C@@H](Oc1ccc2c(-c3c(Cl)cc(F)cc3Cl)ccnc2c1)C(=O)N1CCC2(CCNC2=O)CC1 [Compound 202, 8-[(2R)-2-[[4-(2,6-dichloro-4-fluoro-phenyl)-7-quinolyl]oxy]propanoyl]-2,8-diazaspiro[4.5]decan-1-one]
< 10	< 20	C[C@@H](Oc1ccc2c(-c3c(Cl)cc(F)cc3Cl)ccnc2c1)C(=O)N1CCC[C@H](C(=O)O)C1 [Compound 132, (3S)-1-[(2R)-2-[[4-(2,6-dichloro-4-fluoro-phenyl)-7-quinolyl]oxy]propanoyl]piperidine-3-carboxylic acid]
50 to 500	100 to 1000	CC(C)NC(=O)[C@@H](C)Oc1ccc2c(-c3ccccc3Cl)ccnc2c1 [Compound 48, (2R)-2-[[4-(2-chlorophenyl)-7-quinolyl]oxy]-N-isopropyl-propanamide]
< 10	100 to 1000	C[C@@H](Oc1ccc2c(-c3ccc(F)cc3Cl)ccnc2c1)C(=O)N1CCCC2(COC2)C1 [Compound 212, (2R)-2-[[4-(2-chloro-4-fluoro-phenyl)-7-quinolyl]oxy]-1-(2-oxa-8-azaspiro[3.5]nonan-8-yl)propan-1-one]
10 to 50	100 to 1000	C[C@@H](Oc1ccc2c(-c3ccccc3Cl)cc(Cl)nc2c1)C(=O)N1CCC[C@H](C(N)=O)C1 [Compound 76, (3S)-1-[(2R)-2-[[2-chloro-4-(2-chlorophenyl)-7-quinolyl]oxy]propanoyl]piperidine-3-carboxamide]
500 to 5000	20 to 100	CCOC(=O)[C@H]1CCCN(C(=O)[C@@H](C)Oc2ccc3c(-c4ccc(F)cc4Cl)ccnc3c2)C1 [Compound 27, ethyl (3S)-1-[(2R)-2-[[4-(2-chloro-4-fluoro-phenyl)-7-quinolyl]oxy]propanoyl]piperidine-3-carboxylate]
< 10	100 to 1000	C[C@@H](Oc1ccc2c(-c3ccc(F)cc3Cl)ccnc2c1)C(=O)N1CCCC(S(N)(=O)=O)C1 (mixture of isomers) [Compound 33, 1-[rac-(2R)-2-[[4-(2-chloro-4-fluoro-phenyl)-7-quinolyl]oxy]propanoyl]piperidine-3-sulfonamide]
< 10	20 to 100	C[C@@H](Oc1ccc2c(-c3c(Cl)cc(F)cc3Cl)ccnc2c1)C(=O)N1CCC[C@H](CC(=O)O)C1 [Compound 192, 2-[(3R)-1-[(2R)-2-[[4-(2,6-dichloro-4-fluoro-phenyl)-7-quinolyl]oxy]propanoyl]-3-piperidyl]acetic acid]
10 to 50	< 20	C[C@@H](Oc1ccc2c(-c3ccc(F)cc3Cl)ccnc2c1)C(=O)N1CCC[C@H](C(=O)O)C1 [Compound 10, (3S)-1-[(2R)-2-[[4-(2-chloro-4-fluoro-phenyl)-7-quinolyl]oxy]propanoyl]piperidine-3-carboxylic acid]
< 10	< 20	Cc1cc(F)cc(C)c1-c1ccnc2cc(O[C@H](C)C(=O)N3CCC[C@H](CC(=O)O)C3)ccc12 [Compound 183, 2-[(3R)-1-[(2R)-2-[[4-(4-fluoro-2,6-dimethyl-phenyl)-7-quinolyl]oxy]propanoyl]-3-piperidyl]acetic acid]
10 to 50	100 to 1000	CNC(=O)[C@H]1CCCN(C(=O)[C@@H](C)Oc2ccc3c(-c4ccc(F)cc4Cl)ccnc3c2)C1 [Compound 38, (3S)-1-[(2R)-2-[[4-(2-chloro-4-fluoro-phenyl)-7-quinolyl]oxy]propanoyl]-N-methyl-piperidine-3-carboxamide]
